Experimental findings from patent publication US7879876B2, “Sulfonamide derivatives and use thereof for the modulation of metalloproteinases” (Merck Serono SA, priority 2005, dated 2011) are described below.

pIC50: −log10 of the molar value.

Assay type in all cases: biochemical
The target of one experiment is MMP-14 (Homo sapiens, UniProt P50281). Description: MMP-14 enzyme inhibition assay (coumarin-labelled peptide substrate). The settings on record: read-out: percentage inhibition MMP14. The procedure, abridged:
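Recombinant human enzyme, APMA-activated if necessary, was incubated with McaPLGLDpaAR substrate and compound (10 concentrations in duplicate, 100 μM to 5.1 nM) in Tris-HCl pH 7.6 with NaCl, CaCl2 and Brij 35 for 2 h at 37 °C. Fluorescence was read at 320/405 nm, and IC50 was taken from a four-parameter fit.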

Experiment [1] deals with 92 kDa gelatinase (MMP-9) (Homo sapiens, UniProt P14780). In words: MMP-9 enzyme inhibition assay (coumarin-labeled peptide substrate). The settings on record: @ 5 μM; read-out: percentage inhibition MMP9. A digest of the protocol:
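Recombinant human MMP-9 (APMA-activated if needed) was assayed in 100 mM Tris-HCl pH 7.6, 100 mM NaCl, 10 mM CaCl2, 0.05% Brij 35, with McaPLGLDpaAR substrate at 37° C. for 2 h. Fluorescence was read at ex 320/em 405 nm over ten 3-fold compound doses (100 μM–5.1 nM) in duplicate. IC50 came from a four-parameter fit.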

The next experiment has as its target metalloelastase (MMP-12) (Homo sapiens, UniProt P39900). Description: MMP-12 enzyme inhibition assay (coumarin-labelled peptide substrate). The settings on record: read-out: IC50 MMP12. A digest of the protocol: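 Recombinant human MMP-12 assayed per the MMP-9 protocol: Tris-HCl pH 7.6 buffer with NaCl, CaCl2, Brij 35; McaPLGLDpaAR substrate, compounds 100 μM–5.1 nM in duplicate, 2 h at 37° C. Fluorescence read at 405 nm (320 nm excitation) without stopping; IC50 from four-parameter fit.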

Another experiment addresses T1, collagenase (MMP-1) (Homo sapiens, UniProt P03956).
T1 sequence (P03956 100-469): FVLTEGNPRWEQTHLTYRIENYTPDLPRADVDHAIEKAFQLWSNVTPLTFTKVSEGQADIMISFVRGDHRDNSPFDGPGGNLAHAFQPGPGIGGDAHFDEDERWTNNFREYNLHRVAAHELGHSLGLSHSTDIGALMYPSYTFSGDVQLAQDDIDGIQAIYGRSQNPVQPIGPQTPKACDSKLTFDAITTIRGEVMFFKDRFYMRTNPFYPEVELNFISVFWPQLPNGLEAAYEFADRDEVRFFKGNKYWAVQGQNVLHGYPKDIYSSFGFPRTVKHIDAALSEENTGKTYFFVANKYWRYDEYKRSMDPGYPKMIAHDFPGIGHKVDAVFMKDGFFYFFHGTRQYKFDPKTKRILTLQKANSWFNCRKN
Description: MMP-1 enzyme inhibition assay (coumarin-labelled peptide substrate). Particulars: @ 5 μM; read-out: percentage inhibition MMP1. The procedure, abridged:
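Recombinant human MMP-1, APMA-activated if needed, in Tris-HCl pH 7.6 with NaCl, CaCl2 and 0.05% Brij 35; McaPLGLDpaAR substrate added as 8 μM solution, 2 h at 37 °C. Fluorescence (320/405 nm) read without stopping; IC50 from 10 duplicate concentrations (100 μM–5.1 nM) by four-parameter fit.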

metalloelastase (MMP-12), sequence (P39900 106-470): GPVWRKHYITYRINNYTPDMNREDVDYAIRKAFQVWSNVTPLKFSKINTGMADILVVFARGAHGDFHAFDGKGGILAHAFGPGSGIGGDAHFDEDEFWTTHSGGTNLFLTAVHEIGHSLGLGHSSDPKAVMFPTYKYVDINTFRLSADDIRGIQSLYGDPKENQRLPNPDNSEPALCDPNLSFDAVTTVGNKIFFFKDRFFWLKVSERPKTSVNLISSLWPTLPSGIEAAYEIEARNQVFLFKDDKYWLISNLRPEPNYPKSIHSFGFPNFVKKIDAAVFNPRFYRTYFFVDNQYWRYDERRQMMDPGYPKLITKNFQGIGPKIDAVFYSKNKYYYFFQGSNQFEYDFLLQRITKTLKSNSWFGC
92 kDa gelatinase (MMP-9), sequence (P14780 107-707 limits assumed): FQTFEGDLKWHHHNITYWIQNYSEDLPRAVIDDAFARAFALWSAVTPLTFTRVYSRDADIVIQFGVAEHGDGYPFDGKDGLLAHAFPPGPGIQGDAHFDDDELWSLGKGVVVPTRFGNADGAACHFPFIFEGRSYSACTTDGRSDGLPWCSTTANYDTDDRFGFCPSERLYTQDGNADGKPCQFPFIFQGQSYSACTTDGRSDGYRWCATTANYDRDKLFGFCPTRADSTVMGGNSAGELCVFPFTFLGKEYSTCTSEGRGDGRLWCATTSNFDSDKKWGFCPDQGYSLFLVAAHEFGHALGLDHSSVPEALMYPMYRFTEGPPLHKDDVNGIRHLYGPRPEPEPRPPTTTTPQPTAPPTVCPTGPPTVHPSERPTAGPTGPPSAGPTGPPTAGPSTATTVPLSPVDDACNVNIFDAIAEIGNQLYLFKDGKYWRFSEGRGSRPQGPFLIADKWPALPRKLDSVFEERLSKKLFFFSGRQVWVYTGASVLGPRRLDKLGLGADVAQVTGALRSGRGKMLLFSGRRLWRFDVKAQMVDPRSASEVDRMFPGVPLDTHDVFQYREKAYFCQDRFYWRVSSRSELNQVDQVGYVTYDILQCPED

With `O=CN(O)C(CS(=O)(=O)N1CCc2ccc(F)cc2C1)C1CCCC1` (centres unmarked) [Example 60, N-{1-cyclopentyl-2-[(7-fluoro-3,4-dihydroisoquinolin-2(1H)-yl)sulfonyl]ethyl}-N-hydroxyformamide], the values for the inhibition at 5 µM (on MMP-14; in experiment [1]; at collagenase (MMP-1)) were 16%, 0% and 6%, respectively. Further, the pIC50 on metalloelastase (MMP-12) was 7.16.

With `O=CN(O)C(COc1ccccc1)CS(=O)(=O)N1CCc2ccc(Cl)cc2C1` (centres unmarked) [Example 61, N-[2-[(7-chloro-3,4-dihydroisoquinolin-2(1H)-yl)sulfonyl]-1-(phenoxymethyl)ethyl]-N-hydroxyformamide], the inhibition at 5 µM was 43% on MMP-14, 12% in experiment [1] and 22% at collagenase (MMP-1). For the same compound, the pIC50 on metalloelastase (MMP-12) was 7.82.

As to `O=CN(O)C1(CS(=O)(=O)N2CCc3ccc(Cl)cc3C2)CCCC1` [Example 62, N-(1-{[(7-chloro-3,4-dihydroisoquinolin-2(1H)-yl)-sulfonyl]methyl}cyclopentyl)-N-hydroxyformamide], the inhibition at 5 µM was 75% at MMP-14, 1% in experiment [1] and 52% on collagenase (MMP-1). The pIC50 on metalloelastase (MMP-12) is 7.44.

Turning to `CCCCCC(C)(C)C(CS(=O)(=O)N1CCc2cc(C(F)(F)F)ccc2C1)N(O)C=O` (centres unmarked) [Example 63, N-[2,2-dimethyl-1-({[6-(trifluoromethyl)-3,4-dihydro-isoquinolin-2(1H)-yl]sulfonyl}methyl)heptyl]-N-hydroxyformamide], the inhibition at 5 µM on MMP-14 was 9%; in experiment [1], 7%; at collagenase (MMP-1) it was 34%. Further, the pIC50 at metalloelastase (MMP-12) is 7.06.

In the case of `O=CN(O)C(CS(=O)(=O)N1CCc2ccc(Br)cc2C1)C1CCCC1` (centres unmarked) [Example 64, N-{2-[(7-bromo-3,4-dihydroisoquinolin-2(1H)-yl)sulfonyl]-1-cyclopentylethyl}-N-hydroxyformamide], the inhibition at 5 µM at MMP-14 amounted to 71%; in experiment [1], 32%; at collagenase (MMP-1), 36%. Moreover, the pIC50 at metalloelastase (MMP-12) was 8.10.

As to `CC(C)(C)C(CS(=O)(=O)N1CCc2ccc(Cl)cc2C1)N(O)C=O` (centres unmarked) [Example 65, N-(1-{[(7-chloro-3,4-dihydroisoquinolin-2(1H)-yl)sulfonyl]methyl}-2,2-dimethylpropyl)-N-hydroxyformamide], the inhibition at 5 µM was 50% at MMP-14, 13% in experiment [1] and 30% on collagenase (MMP-1). Moreover, the pIC50 on metalloelastase (MMP-12) was 7.57.

`O=CN(O)C(CS(=O)(=O)N1CCc2ccc(-c3ccsc3)cc2C1)C1CCCC1` (centres unmarked) [Example 68, N-(1-cyclopentyl-2-{[7-(3-thienyl)-3,4-dihydroisoquinolin-2(1H)-yl]sulfonyl}ethyl)-N-hydroxyformamide]: on MMP-14, the inhibition at 0.1 µM was -30%. Besides, the inhibition at 5 µM is 99% at MMP-14, 31% in experiment [1] and 0% on collagenase (MMP-1). Moreover, on metalloelastase (MMP-12), the pIC50 is 8.05.

Turning to `O=CN(O)C(CS(=O)(=O)N1CCc2ccc(-c3ccccc3)cc2C1)C1CCCC1` (centres unmarked) [Example 69, N-{1-cyclopentyl-2-[(7-phenyl-3,4-dihydroisoquinolin-2(1H)-yl)sulfonyl]ethyl}-N-hydroxyformamide], the figures for the inhibition at 5 µM (on MMP-14; in experiment [1]; on collagenase (MMP-1)) were 63%, 26% and 4%, respectively. For the same compound, at metalloelastase (MMP-12), the pIC50 is 7.74.

On to `O=CN(O)C(CS(=O)(=O)N1CCc2ccc(-c3cccc(O)c3)cc2C1)C1CCCC1` (centres unmarked) [Example 70, N-(1-cyclopentyl-2-{[7-(3-hydroxyphenyl)-3,4-dihydroisoquinolin-2(1H)-yl]sulfonyl}ethyl)-N-hydroxyformamide], for which the inhibition at 5 µM on MMP-14 was determined as 27%; in experiment [1], 3%; at collagenase (MMP-1) it was 0%. In addition, the pIC50 on metalloelastase (MMP-12) was 7.39.

Consider `O=CN(O)C(CS(=O)(=O)N1Cc2ccccc2C1)C1CC1` (centres unmarked) [Example 72, N-[1-cyclopropyl-2-(1,3-dihydro-2H-isoindol-2-ylsulfonyl)-ethyl]-N-hydroxyformamide], for which the inhibition at 5 µM was 63% on MMP-14, 28% in experiment [1] and 75% at collagenase (MMP-1). Also, on metalloelastase (MMP-12), the pIC50 was 7.70.

In the case of `O=CN(O)C(CS(=O)(=O)N1CCc2ccc(Cl)cc2C1)C1CC1` (centres unmarked) [Example 73, N-{2-[(7-chloro-3,4-dihydroisoquinolin-2(1H)-yl)sulfonyl]-1-cyclopropylethyl}-N-hydroxyformamide], the inhibition at 5 µM stood at 40% at MMP-14, 5% in experiment [1] and 19% at collagenase (MMP-1). The pIC50 on metalloelastase (MMP-12) was 7.35.

Take `O=CN(O)C(CS(=O)(=O)N1CCc2cc(C(F)(F)F)ccc2C1)C1CC1` (centres unmarked) [Example 74, N-(1-cyclopropyl-2-{[6-(trifluoromethyl)-3,4-dihydro-isoquinolin-2(1H)-yl]sulfonyl}ethyl)-N-hydroxyformamide]: the inhibition at 5 µM at MMP-14 turned out to be 76%; in experiment [1], 32%; on collagenase (MMP-1) it was 44%. The pIC50 on metalloelastase (MMP-12) is 8.28.

For the compound `O=CN(O)C(CS(=O)(=O)N1CCc2ccc(-c3ccc(F)cc3)cc2C1)C1CC1` (centres unmarked) [Example 75, N-(1-cyclopropyl-2-{[7-(4-fluorophenyl)-3,4-dihydro-isoquinolin-2(1H)-yl]sulfonyl}ethyl)-N-hydroxyformamide], the inhibition at 0.1 µM at MMP-14 was determined as 11%. For the same compound, the inhibition at 5 µM worked out at 92% at MMP-14, 71% in experiment [1] and 0% on collagenase (MMP-1). Besides, the pIC50 on metalloelastase (MMP-12) was 8.22.

On to `O=CN(O)C(CCC(F)(F)F)CS(=O)(=O)N1CCc2ccc(Cl)cc2C1` (centres unmarked) [Example 76, N-(1-{[(7-chloro-3,4-dihydroisoquinolin-2(1H)-yl)-sulfonyl]methyl}-4,4,4-trifluorobutyl)-N-hydroxyformamide], for which the values for the inhibition at 5 µM (at MMP-14; in experiment [1]; at collagenase (MMP-1)) were 59%, 14% and 43%, respectively. On metalloelastase (MMP-12), the pIC50 is 7.66.

With `O=CN(O)C(CS(=O)(=O)N1CCc2cc(Cl)c(Cl)cc2C1)C1CCCC1` (centres unmarked) [Example 77, N-{1-cyclopentyl-2-[(6,7-dichloro-3,4-dihydroisoquinolin-2(1H)-yl)sulfonyl]ethyl}-N-hydroxyformamide], the inhibition at 5 µM on MMP-14 came out at 78%; in experiment [1] it was 35%; on collagenase (MMP-1) it was 17%. Also, the negative logarithm of the IC50 (pIC50) at metalloelastase (MMP-12) was 8.29.

For `O=CN(O)C(CS(=O)(=O)N1CCc2ccc(-c3ccncc3)cc2C1)C1CCCC1` (centres unmarked) [Example 79, N-{1-cyclopentyl-2-[(7-pyridin-4-yl-3,4-dihydroisoquinolin-2(1H)-yl)sulfonyl]ethyl}-N-hydroxyformamide], the inhibition at 0.1 µM on MMP-14 amounted to 19%. Moreover, the results for the inhibition at 5 µM (on MMP-14; in experiment [1]; at collagenase (MMP-1)) were 72%, 57% and 0%, respectively. At metalloelastase (MMP-12), the pIC50 was 8.70.

Take `O=CN(O)C(CS(=O)(=O)N1Cc2ccc(F)cc2C1)C1CCCC1` (centres unmarked) [Example 80, N-{1-cyclopentyl-2-[(5-fluoro-1,3-dihydro-2H-isoindol-2-yl)sulfonyl]ethyl}-N-hydroxyformamide]: the inhibition at 5 µM at MMP-14 came out at 15%; in experiment [1] it was 0%; on collagenase (MMP-1) it was 25%. Besides, the pIC50 on metalloelastase (MMP-12) was 7.35.
